# In PMC10269678, “Identification of Fungus-Derived Natural Products as New Antigiardial Scaffolds” (Microbiology Spectrum, 2023):
# Read-outs that look alike come from different tables or passages of the source.
# Assays:
# [1] = tested on: G. lamblia strain CBG99; experiment: G. lamblia CBG99 luciferase reporter trophozoite growth assay; type: cell-based, Giardia lamblia; details: for inhibition at 10 µM: read-out: % inhibition at 10 μM; for times more potent than metronidazole: relative to metronidazole EC50 of 5 μM; for % inhibition at 10 μM: pNP tested at 10 μM, G. lamblia growth, primary screen
# Excerpt: For in vitro Giardia assays, we used a click beetle green (CBG99) luciferase-based reporter system that was developed for quantitative bioluminescence readouts of growth in trophozoites ([13][–][15]). The CBG99 reporter gene is under the control of the glutamate dehydrogenase promoter, which is highly expressed in the G. lamblia trophozoite stage, making it useful for monitoring growth even in mouse infection models ([15]). The compound library was obtained from the Natural Products Discovery Group (NPDG) at the University of Oklahoma ([16]). A combination of 755 purified natural products (pNPs) and 1,056 fungal extracts were screened against G. lamblia strain CBG99. Hits were defined as samples that caused ≥50% growth inhibition activity at 10 μM (pNPs) or 5 μg/mL (extracts). […] Only 2 were considered false positives (EC50 > 10 μM) (Table 2).
# [2] = tested on: G. lamblia strain CBG99; parameters: method as in PMID 26324270; details: cited from earlier work
# [3] = Giardia duodenalis, read-out: EC50 against G. lamblia trophozoite
# [4] = Giardia duodenalis, read-out: EC50 ± SD (μM)
# [5] = G. lamblia trophozoite growth in vitro, Table 2, read-out: EC50 ± SD
compound,measurement,setting,value
"CO[C@@H]1[C@H](OC(=O)/C=C/C=C/C=C/C=C/C(=O)O)CC[C@]2(CO2)[C@H]1[C@@]1(C)O[C@@H]1CC=C(C)C [NPDG 170035, Fumagillin]",inhibition at 10 µM,[1]; Giardia duodenalis,88%
same,EC50,[1]; [3],< 0.2 µM
same,EC50,[1]; [4],0.004 µM
same,times more potent than metronidazole,[1],> 25 times
Cc1ncc([N+](=O)[O-])n1CCO [metronidazole],EC50,[2],5 µM
COC1C(OC(=O)C=CC=CC=CC=CC(=O)O)CCC(O)(CCl)C1C1(C)OC1CC=C(C)C (centres unmarked) [NPDG 150137],inhibition at 10 µM,[1]; Giardia duodenalis,90%
same,EC50,[1]; [3],< 0.2 µM
same,EC50,[1]; [4],0.006 µM
same,times more potent than metronidazole,[1],> 25 times
"N[C@H](C(=O)O)[C@@H]1CC(Cl)=NO1 [NPDG 120071, Acivicin]",inhibition at 10 µM,[1]; Giardia duodenalis,85%
same,EC50,[1]; [4],> 10 µM
"COC1=CC(=O)c2c(O)c(C)c(CC(C)=O)c(O)c2C1=O [NPDG 160012, Javanicin]",inhibition at 10 µM,[1]; Giardia duodenalis,89%
same,EC50,[1]; [4],1.26 ± 1.01 µM
"C/C=C/C=C/C=C/C(=O)O[C@@H]1C=C2COC(=O)[C@]2(O)[C@@]2(C)CCCC(C)(C)[C@H]12 [NPDG 150125, RES-1149-2]",inhibition at 10 µM,[1]; Giardia duodenalis,88%
same,EC50,[1]; [3],< 0.2 µM
same,EC50,[1]; [4],0.18 ± 0.11 µM
same,times more potent than metronidazole,[1],> 25 times
"CC(C)=C1NC(=O)C(CC2(O)c3ccccc3N3C(=O)C(C)(C)NC32)n2c1nc1ccccc1c2=O (centres unmarked) [J16M, Quinadoline A]",EC50,[1]; Giardia duodenalis,3.29 µM
"CC(=O)O[C@H]1C[C@@]2(C)[C@@H](CC[C@H]3[C@@]4(C)C=CC(=O)[C@@H](C)[C@@H]4[C@H](OC(C)=O)C(=O)[C@@]32C)/C1=C(\CCC=C(C)C)C(=O)O [NPDG 170028, Helvolic acid]",inhibition at 10 µM,[1]; Giardia duodenalis,83%
same,EC50,[1]; [4],3.36 ± 0.14 µM
"COC(=O)c1c(Sc2c(O)cc3oc4cc(C)cc(O)c4c(=O)c3c2C(=O)OC)c(O)cc(OC)c1C(=O)c1c(O)cc(C)cc1O [NPDG 150051, Dioschrin]",EC50,[1]; [5],3.21 ± 0.61 µM
same,% inhibition at 10 μM,[1],82%
"CC1(C)C(=O)N2c3ccccc3C3(CC(n4cnc5ccccc5c4=O)C(=O)O3)C2N1O (centres unmarked) [J16L, Tryptoquivaline L]",EC50,[1]; Giardia duodenalis,7.15 µM
CC(C)C(=O)c1nc2ccccc2c(=O)n1C1CC2(OC1=O)c1ccccc1N1C(=O)C(C)(C)NC12 (centres unmarked) [J36B],EC50,[1]; Giardia duodenalis,0.044 µM
"COC(=O)C1=C[C@@H](O)[C@@H](O)[C@@H](O)[C@H]1N1C[C@H](O)[C@@H](OC(C)=O)[C@H]1Cc1ccc(OC)cc1 [NPDG 150029, Anisomycin 1-N-pericosine]",inhibition at 10 µM,[1]; Giardia duodenalis,86%
same,EC50,[1]; [4],3.32 ± 0.01 µM
"C/C=C(\C)c1cc(OC)c(C)c2c1Oc1c(CO)c(O)cc(/C(C)=C/C(=O)O)c1C(=O)O2 [NPDG 150134, Auranticin A]",inhibition at 10 µM,[1]; Giardia duodenalis,89%
same,EC50,[1]; [4],4.44 ± 3.02 µM
"C[C@@H]1N[C@H]2N(C1=O)c1ccccc1[C@@]21C[C@@H]2C(=O)N[C@@](C)(O1)c1nc3ccccc3c(=O)n12 [NPDG 170098, Fumiquinazoline C]",EC50,[1]; [5],6.92 ± 8.5 µM
same,% inhibition at 10 μM,[1],82%
"COC1=CC(=O)C[C@@H](C)[C@]12Oc1c(Cl)c(OC)cc(OC)c1C2=O [J16K, Griseofulvin]",EC50,[1]; Giardia duodenalis,7.88 µM
"CC(=O)ON1C2N(C(=O)C1(C)C)c1ccccc1C21CC(n2c(C(O)C(C)C)nc3ccccc3c2=O)C(=O)O1 (centres unmarked) [J36C, isotryptoquivaline]",EC50,[1]; Giardia duodenalis,0.84 µM
Perfraglin A [NPDG 120038],EC50,[1]; [5],> 10 µM
same,% inhibition at 10 μM,[1],75%
"CC(=O)OC(C)(C)[C@H]1O[C@H]2CC[C@@]3(C)[C@@](O)(CC[C@H]4Cc5c([nH]c6ccccc56)[C@@]43C)C2=CC1=O [NPDG 150113, 1′-O-acetylpaxilline]",EC50,[1]; [5],3.4 µM
same,% inhibition at 10 μM,[1],82%
"CO[C@@H]1[C@H](OC(=O)\C=C/C=C/C=C/C=C/C(=O)O)CC[C@]2(CO2)[C@H]1[C@@]1(C)O[C@@H]1CC=C(C)C [NPDG 150049, cis-Fumagillin]",inhibition at 10 µM,[1]; Giardia duodenalis,85%
same,EC50,[1]; [3],< 0.2 µM
same,EC50,[1]; [4],0.03 ± 0.02 µM
same,times more potent than metronidazole,[1],> 25 times
"C=C1CC[C@@H](OC(=O)/C=C/C=C/C=C/C=C/C(=O)O)[C@@H](OC)[C@H]1[C@@]1(C)O[C@@H]1CC=C(C)C [NPDG 150138, Sch 528647]",EC50,[1]; [5],3.09 ± 0.16 µM
same,% inhibition at 10 μM,[1],88%
"COC1=CC(=O)CC(C)C12Oc1cc(OC)cc(OC)c1C2=O (centres unmarked) [J16A, Dechlorogriseofulvin]",EC50,"[1]; Giardia duodenalis, read-out: Giardia EC50 (μM)",> 15 µM
"CC(C)C1NC(=O)C(CC2(O)c3ccccc3N3C(=O)C(C)(C)NC32)n2c1nc1ccccc1c2=O (stereo not drawn) [J16E, epi-Fiscalin C]",EC50,[1]; Giardia duodenalis,0.555 µM
"CC(=O)C1=C(O)[C@@H]2[C@H]3c4c[nH]c5cccc(c45)C[C@H]3C(C)(C)N2C1=O [NPDG 170027, Cyclopiazonic acid]",inhibition at 10 µM,[1]; Giardia duodenalis,81%
same,EC50,[1]; [4],1.3 ± 0.71 µM
"COC12OC1(C13OC1(OC)C(=O)c1cc4cc(C)oc(=O)c4c(O)c1C3O)C(O)c1c(cc3cc(C)oc(=O)c3c1O)C2=O (centres unmarked) [J16R, Xanthoepocin]",EC50,[1]; Giardia duodenalis,0.146 µM
